{"source": "patent US20220213197A1", "about": "(priority 2019, published 2022)", "key": {"[1]": {"tested_on": "Streptococcus pyogenes (ATCC BAA-2469)", "assay": "Soft tissue (thigh) infection model in neutropenic mice", "assay_type": "in vivo", "conditions": "24 hours post infection"}, "[2]": {"tested_on": "Clostridium perfringens (ATCC 13124)"}, "[3]": {"tested_on": "Klebsiella pneumoniae 8637 strain", "assay": "Neutropenic lung infection model", "assay_type": "in vivo, ICR mice", "conditions": "for Decrease in the number of CFU vs control (placebo): Day 5"}, "[4]": {"tested_on": "carrageenan induced inflammation in rats", "assay": "Carrageenan induced paw oedema", "assay_type": "in vivo", "experimental": "Inflammatory response was induced in animals by subplantar injection (into the plantar aponeurosis of the left hind paw) of 0.1 ml 1% carrageenan solution.\nThe severity of inflammatory response was assessed by estimating oedema weight gain in mg calculated as a difference between the paw weights with and without oedema."}, "[5]": {"tested_on": "Chlamydophila pneumonia CM1 strain", "assay": "Lung infection model with Chlamydophila pneumonia", "assay_type": "in vivo, C57BL/6J mice"}, "[6]": {"tested_on": "Klebsiella pneumoniae BAA-1705", "assay": "Bacterial pneumonia in neutropenic mice, AMC-resistant strain (Study No. 1)", "assay_type": "in vivo"}, "[7]": {"tested_on": "influenza A/California/07/09(H1N1)pdm09", "assay_type": "in vivo, mice"}, "[8]": {"tested_on": "Pseudomonas aeruginosa (RP73)", "assay": "Pseudomonas aeruginosa lung infection in rats", "assay_type": "in vivo, Sprague-Dawley rats"}, "[9]": {"tested_on": "Mycobacterium tuberculosis", "assay": "Antituberculosis activity in guinea pig model of experimental tuberculosis", "conditions": "in vivo"}, "[10]": {"conditions": "48 hours after infection (medicament: 48 hours and onwards)"}}, "note": "Values joined by “and” are separate entries in the source; they are usually repeats but may differ in a detail not shown here. Equal entries are not always repeated. Where two headings read alike, the source gives them in different places."}
{"compound": "CC(=O)NC[C@H]1CN(c2ccc(N3CCOCC3)c(F)c2)C(=O)O1", "note": "[placebo + L, linezolid]", "values": [{"measurement": "Mean bacterial burden in the femoral tissue", "setting": "[1]", "result": "5.5 CFU/g, log10"}]}
{"compound": "CO[C@@]1(NC(=O)Cc2cccs2)C(=O)N2C(C(=O)O)=C(COC(N)=O)CS[C@@H]21", "note": "[cefoxitin]", "values": [{"measurement": "Animals alive", "setting": "[2]; 24 hours after infection", "result": 55, "unit": "%"}, {"measurement": "Animals alive", "setting": "[2]; [10]", "result": 15, "unit": "%"}, {"measurement": "Animals alive", "setting": "[2]; 72 hours after infection", "result": 15, "unit": "%"}]}
{"compound": "CC[C@H]1OC(=O)[C@H](C)C(=O)[C@H](C)[C@@H](O[C@@H]2O[C@H](C)C[C@H](N(C)C)[C@H]2O)[C@](C)(OC)C[C@@H](C)C(=O)[C@H](C)[C@H]2N(CCCCn3cnc(-c4cccnc4)c3)C(=O)O[C@]12C", "note": "[placebo + T, telithromycin]", "values": [{"measurement": "Mean bacterial burden in the femoral tissue", "setting": "[1]", "result": "8.4 CFU/g, log10"}]}
{"compound": "C[C@@H](O)[C@H]1C(=O)N2C(C(=O)O)=C(SCCN=CN)C[C@H]12", "note": "[imipenem]", "values": [{"measurement": "Animals survived", "setting": "[3]; Day 1 after infection", "result": 85, "unit": "%"}, {"measurement": "Animals survived", "setting": "[3]; Day 2", "result": 70, "unit": "%"}, {"measurement": "Animals survived", "setting": "[3]; Day 3 (imipenem: Day 3 and onwards)", "result": 50, "unit": "%"}, {"measurement": "Decrease in the number of CFU vs control (placebo)", "setting": "[3]; blood", "result": 67, "unit": "%"}, {"measurement": "Decrease in the number of CFU vs control (placebo)", "setting": "[3]; kidneys", "result": 61, "unit": "%"}, {"measurement": "Decrease in the number of CFU vs control (placebo)", "setting": "[3]; liver", "result": 40, "unit": "%"}, {"measurement": "Decrease in the number of CFU vs control (placebo)", "setting": "[3]; lungs", "result": 48, "unit": "%"}, {"measurement": "Decrease in the number of CFU vs control (placebo)", "setting": "[3]; spleen", "result": 45, "unit": "%"}]}
{"compound": "COc1ccc2c(c1)c(CC(=O)O)c(C)n2C(=O)c1ccc(Cl)cc1", "note": "[indomethacin, Indomethacin]", "values": [{"measurement": "Decrease of oedema weight as compared to the control", "setting": "[4]", "result": 57.9, "unit": "%"}]}
{"compound": "CC[C@H]1OC(=O)[C@H](C)[C@@H](O[C@H]2C[C@@](C)(OC)[C@@H](O)[C@H](C)O2)[C@H](C)[C@@H](O[C@@H]2O[C@H](C)C[C@H](N(C)C)[C@H]2O)[C@](C)(O)C[C@@H](C)CN(C)[C@H](C)[C@@H](O)[C@]1(C)O", "note": "[azithromycin]", "values": [{"measurement": "Death rate", "setting": "[5]; Day 3 after infection", "result": 19, "unit": "%"}, {"measurement": "IL-1β concentration in lung tissue, % of the control levels (Group 1)", "setting": "[5]; Day 3 after infection", "result": 17, "unit": "%"}, {"measurement": "IL-6 concentration in lung tissue, % of the control levels (Group 1)", "setting": "[5]; Day 3 after infection", "result": 15, "unit": "%"}, {"measurement": "Number of infected HEp2 cells (bacterial load of lung homogenate), % of placebo", "setting": "[5]; Day 3 after infection", "result": 15, "unit": "%"}, {"measurement": "IL-1β concentration in lung tissue, % of the control levels (Group 1)", "setting": "[5]; Day 6 after infection", "result": 7, "unit": "%"}, {"measurement": "IL-6 concentration in lung tissue, % of the control levels (Group 1)", "setting": "[5]; Day 6 after infection", "result": 8, "unit": "%"}, {"measurement": "Number of infected HEp2 cells (bacterial load of lung homogenate), % of placebo", "setting": "[5]; Day 6 after infection", "result": 17, "unit": "%"}, {"measurement": "IL-1β concentration in lung tissue, % of the control levels (Group 1)", "setting": "[5]; Day 12 after infection", "result": 6, "unit": "%"}, {"measurement": "IL-6 concentration in lung tissue, % of the control levels (Group 1)", "setting": "[5]; Day 12 after infection", "result": 5, "unit": "%"}, {"measurement": "Number of infected HEp2 cells (bacterial load of lung homogenate), % of placebo", "setting": "[5]; Day 12 after infection", "result": 5, "unit": "%"}, {"measurement": "Survival rate", "setting": "[5]; whole study, deaths first recorded on Day 3", "result": 81, "unit": "%"}]}
{"compound": "Gentamicin", "values": [{"measurement": "Animals survived", "setting": "[6]; AMC-resistant strain, 10^6 CFU/mouse", "result": 70, "unit": "%"}, {"measurement": "Body weight evolution", "setting": "[6]; follow-up period", "result": "body weight evolution was observed from 54 h"}]}
{"compound": "CCOC(=O)C1=C[C@@H](OC(CC)CC)[C@H](NC(C)=O)[C@@H](N)C1", "note": "[Tamiflu, Oseltamivir]", "values": [{"measurement": "Body weights of experimental animals expressed as M ± SD", "setting": "[7]; Day 0", "result": "16.7 ± 1.2"}, {"measurement": "Body weights of experimental animals expressed as M ± SD", "setting": "[7]; Day 5", "result": "15.5 ± 1.4"}, {"measurement": "Body weights of experimental animals expressed as M ± SD", "setting": "[7]; Day 9", "result": "13.6 ± 1.7"}, {"measurement": "Body weights of experimental animals expressed as M ± SD", "setting": "[7]; Day 12", "result": "14.9 ± 2.2"}, {"measurement": "Body weights of experimental animals expressed as M ± SD", "setting": "[7]; Day −5", "result": "17.8 ± 1.2"}, {"measurement": "Body weights of experimental animals expressed as M ± SD", "setting": "[7]; Day −15", "result": "16.1 ± 1.0"}, {"measurement": "Protection index, %", "setting": "[7]; PI=((Mc−Me)/Mc)×100%", "result": 57.1, "unit": "%"}, {"measurement": "MLE", "setting": "[7]; mean life expectancy over 14 days", "result": 8.6, "unit": "days"}, {"measurement": "Mortality rate, %", "setting": "[7]; mouse, in vivo", "result": 30, "unit": "%"}, {"measurement": "Viral titer in lung tissue, Mean", "setting": "[7]; mouse, in vivo", "result": 4.8, "unit": "Ig TCID50/0.2 ml"}, {"measurement": "Viral titer in lung tissue, individual animals", "setting": "[7]; mouse, in vivo, listed as 2", "result": "4.5 Ig TCID50/0.2 ml (5×) and 5.0 Ig TCID50/0.2 ml (2×) and 4.0 Ig TCID50/0.2 ml and 5.5 Ig TCID50/0.2 ml and 6.0 Ig TCID50/0.2 ml"}, {"measurement": "MLE increase", "setting": "[7]; vs negative control", "result": 0.2, "unit": "days"}]}
{"compound": "CN(C)[C@@H]1C(O)=C(C(N)=O)C(=O)[C@@]2(O)C(O)=C3C(=O)c4c(O)cccc4[C@@](C)(O)[C@H]3C[C@@H]12", "note": "[tetracycline]", "values": [{"measurement": "Animals alive", "setting": "[2]; 24 hours after infection", "result": 85, "unit": "%"}, {"measurement": "Animals alive", "setting": "[2]; [10]", "result": 80, "unit": "%"}, {"measurement": "Animals alive", "setting": "[2]; 72 hours after infection", "result": 80, "unit": "%"}]}
{"compound": "NC[C@H]1O[C@H](O[C@H]2[C@H](O)[C@@H](O[C@H]3O[C@H](CO)[C@@H](O)[C@H](N)[C@H]3O)[C@H](N)C[C@@H]2N)[C@H](N)C[C@@H]1O", "note": "[tobramycin]", "values": [{"measurement": "Decrease of bronchoalveolar lavage CFU count compared to placebo", "setting": "[8]; Day 5", "result": 88, "unit": "%"}, {"measurement": "Decrease of bronchoalveolar lavage CFU count compared to the untreated animals", "setting": "[8]; Day 5", "result": 88, "unit": "%"}, {"measurement": "Reduction of lung CFU count compared to placebo", "setting": "[8]; Day 5", "result": 19, "unit": "%"}, {"measurement": "Reduction of lung CFU count compared to the untreated animals", "setting": "[8]; Day 5", "result": 29, "unit": "%"}, {"measurement": "Overall decrease in body weight by the end of the study", "setting": "[8]; vs baseline", "result": 4, "unit": "%"}]}
{"compound": "NNC(=O)c1ccncc1", "note": "[placebo + isoniazid, Isoniazid]", "values": [{"measurement": "Difference between initial and final body weight of animals", "setting": "[9]", "result": "180.6 ± 28.4", "unit": "g"}, {"measurement": "Life expectancy, units", "setting": "[9]", "result": "2.7 ± 0.09", "unit": "units"}]}
